Laboratory results: the supplement of paper PMC11061612

Tests used:
Experiment in all cases: Bliss excess, mean over the matrix (fraction); higher = more synergy
[1] = system: NCI-H747 (Colorectal Carcinoma)
How it was run: (§1)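 After 24 hours at 37°C and 5% CO2 in 1536-well plates, cells in DMEM/F12 or RPMI plus 10% FBS received two-drug dose matrices for 72 hours. Viability came from CellTiter-Glo 2.0 luminescence and was scaled as inhibition, anchored at 0 by vehicle wells and at 1 by blank wells. Combination Emax is taken as the second-highest inhibition in the matrix, and Bliss excess as the observed combination effect less EA + EB − EA·EB, with EA and EB the single-agent effects.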

[2] = system: HARA (Squamous Cell Lung Carcinoma)
How it was run: as §1

[3] = system: KYSE-410 (Esophageal Squamous Cell Carcinoma)
How it was run: as §1

[4] = system: NCI-H69 (Small Cell Lung Carcinoma)
How it was run: as §1

Mewo (Melanoma) = system: Mewo (Melanoma)
How it was run: as §1

NB14 (Neuroblastoma) = system: NB14 (Neuroblastoma)
How it was run: as §1

[5] = system: MDA-MB-468 (Breast Carcinoma)
How it was run: as §1

[6] = system: SW626 (Colorectal Carcinoma)
How it was run: as §1

NCI-H28 (Mesothelioma) = system: NCI-H28 (Mesothelioma)
How it was run: as §1

[7] = system: HDLM-2 (Hodgkin's Lymphoma)
How it was run: as §1

[8] = system: LoVo (Colorectal Carcinoma)
How it was run: as §1

[9] = system: KARPAS-231 (B-Cell Non-Hodgkin's Lymphoma)
How it was run: as §1

[10] = system: CAL-54 (Kidney Carcinoma)
How it was run: as §1

[11] = system: OVCAR-8 (Ovarian Carcinoma)
How it was run: as §1

[12] = system: TE-4 (Esophageal Squamous Cell Carcinoma)
How it was run: as §1

COLO-829 (Melanoma) = system: COLO-829 (Melanoma)
How it was run: as §1

[13] = system: SK-OV-3 (Ovarian Carcinoma)
How it was run: as §1

[14] = system: LU-139 (Small Cell Lung Carcinoma)
How it was run: as §1

[15] = system: SUP-T1 (T-Lymphoblastic Leukemia)
How it was run: as §1

[16] = system: MHH-PREB-1 (B-Cell Non-Hodgkin's Lymphoma)
How it was run: as §1

Structure (SMILES) | Bliss excess [1] | Bliss excess [2] | Bliss excess [3] | Bliss excess [4] | Bliss excess (Mewo (Melanoma)) | Bliss excess (NB14 (Neuroblastoma)) | Bliss excess [5] | Bliss excess [6] | Bliss excess (NCI-H28 (Mesothelioma)) | Bliss excess [7] | Bliss excess [8] | Bliss excess [9] | Bliss excess [10] | Bliss excess [11] | Bliss excess [12] | Bliss excess (COLO-829 (Melanoma)) | Bliss excess [13] | Bliss excess [14] | Bliss excess [15] | Bliss excess [16]
Cc1c2c(nn1C)CSCc1cc(n(C)n1)CSc1cc(c3ccccc3c1)OCCCc1c(C(=O)O)n(C)c3c-2c(Cl)ccc13 [AZD5991] + Cn1cnc2c(F)c(Nc3ccc(Br)cc3Cl)c(C(=O)NOCCO)cc21 [Selumetinib] (first compound max 1 µM, 7x7, partner max 3 µM) | 0.0032 | -0.0263 | -0.0058 | -0.065 | -0.0417 | 0.0392 | -0.0389 | 0.0233 | -0.026 | -0.0477 | 0.0074 | -0.0645 | 0.0203 | 0.0416 | 0.0329 | 0.0295 | -0.0597 | -0.0283 | -0.0246 | 0.0113
CC1(C)CCC(CN2CCN(c3ccc(C(=O)NS(=O)(=O)c4ccc(NCC5CCOCC5)c([N+](=O)[O-])c4)c(Oc4cnc5[nH]ccc5c4)c3)CC2)=C(c2ccc(Cl)cc2)C1 [Venetoclax] + Cn1cnc2c(F)c(Nc3ccc(Br)cc3Cl)c(C(=O)NOCCO)cc21 [Selumetinib] (first compound max 1 µM, 7x7, partner max 3 µM) | -0.0489 | -0.0084 | -0.0393 | -0.105 | -0.0252 | -0.0221 | -0.0693 | -0.0877 | -0.0449 | -0.0245 | -0.0458 | -0.177 | -0.0466 | -0.0373 | -0.0277 | -0.0392 | -0.0624 | -0.0357 | -0.0723 | 0.0028
CC1(C)CCC(CN2CCN(c3ccc(C(=O)NS(=O)(=O)c4ccc(NCC5CCOCC5)c([N+](=O)[O-])c4)c(Oc4cnc5[nH]ccc5c4)c3)CC2)=C(c2ccc(Cl)cc2)C1 [Venetoclax] + C=CCn1c(=O)c2cnc(Nc3ccc(N4CCN(C)CC4)cc3)nc2n1-c1cccc(C(C)(C)O)n1 [AZD1775] (first compound max 1 µM, partner max 1 µM) | -0.0656 | 0.0494 | -0.0451 | -0.0251 | -0.0079 | 0.0967 | -0.0308 | -0.0676 | -0.048 | 0.0749 | -0.0625 | -0.047 | -0.0099 | -0.0326 | -0.0529 | -0.012 | -0.026 | 0.0207 | 0.0425 | -0.0328
CC1(C)CCC(CN2CCN(c3ccc(C(=O)NS(=O)(=O)c4ccc(NCC5CCOCC5)c([N+](=O)[O-])c4)c(Oc4cnc5[nH]ccc5c4)c3)CC2)=C(c2ccc(Cl)cc2)C1 [Venetoclax] + CCN(CCO)CCCOc1ccc2c(Nc3cc(CC(=O)Nc4cccc(F)c4)[nH]n3)ncnc2c1 [AZD2811] (first compound max 1 µM, 7x7, partner max 1 µM) | -0.0429 | 0.0345 | -0.0234 | 0.0928 | -0.0193 | -0.0361 | -0.086 | -0.0394 | -0.0346 | 0.106 | -0.0359 | -0.0484 | -0.0105 | 0.0431 | -0.005 | -0.0359 | -0.0401 | 0.0596 | -0.0012 | -0.0052
CC(=O)c1c(C)c2cnc(Nc3ccc(N4CCNCC4)cn3)nc2n(C2CCCC2)c1=O [Palbociclib] + Cc1c2c(nn1C)CSCc1cc(n(C)n1)CSc1cc(c3ccccc3c1)OCCCc1c(C(=O)O)n(C)c3c-2c(Cl)ccc13 [AZD5991] (first compound max 10 µM, 7x7, partner max 1 µM) | -0.0196 | 0.021 | -0.0657 | -0.0378 | -0.0291 | -0.0498 | 0.0078 | -0.0211 | -0.0319 | -0.072 | -0.0584 | -0.0835 | -0.0781 | -0.0281 | -0.0598 | -0.0232 | -0.0569 | 0.0198 | 0.0394 | -0.0405
CN(CCO)CC[C@H](CSc1ccccc1)Nc1ccc(S(=O)(=O)NC(=O)c2ccc(N3CCC([C@@H](O)c4ccccc4-c4ccc(Cl)cc4)CC3)cc2)cc1S(=O)(=O)C(F)(F)F [AZD4320] + CN(C)CCCOc1ccc(-c2ccc3ncc4c(c3c2)n(C2CCOCC2)c(=O)n4C)cn1 [AZD0156] (first compound max 1 µM, 7x7, partner max 1 µM) | -0.0546 | 0.0007 | -0.0482 | -0.0465 | -0.0466 | 0.061 | -0.127 | -0.0545 | -0.0693 | -0.0667 | -0.0622 | 0.0325 | -0.0224 | -0.0434 | -0.0285 | -0.0481 | -0.0364 | -0.0164 | -0.0333 | 0.0075
CC1(C)CCC(CN2CCN(c3ccc(C(=O)NS(=O)(=O)c4ccc(NCC5CCOCC5)c([N+](=O)[O-])c4)c(Oc4cnc5[nH]ccc5c4)c3)CC2)=C(c2ccc(Cl)cc2)C1 [Venetoclax] + COc1cc(Nc2ncc3c(n2)-c2ccc(Cl)cc2C(c2c(F)cccc2OC)=NC3)ccc1C(=O)O [Alisertib] (first compound max 1 µM, 7x7, partner max 10 µM) | 0.0071 | 0.018 | -0.0651 | 0.146 | -0.0163 | 0.0448 | 0.0409 | -0.0167 | -0.0704 | 0.0993 | -0.0799 | 0.0566 | -0.0251 | 0.0079 | -0.034 | -0.0548 | -0.076 | 0.149 | 0.0423 | -0.03
Cc1c2c(nn1C)CSCc1cc(n(C)n1)CSc1cc(c3ccccc3c1)OCCCc1c(C(=O)O)n(C)c3c-2c(Cl)ccc13 [AZD5991] + CCN(CCO)CCCOc1ccc2c(Nc3cc(CC(=O)Nc4cccc(F)c4)[nH]n3)ncnc2c1 [AZD2811] (first compound max 1 µM, 7x7, partner max 1 µM) | -0.0133 | 0.0761 | 0.045 | 0.0092 | -0.0173 | 0.0085 | -0.0025 | 0.0141 | 0.0191 | -0.0117 | -0.0257 | -0.007 | -0.0018 | 0.0412 | 0.063 | -0.0319 | 0.0018 | 0.0672 | 0.0561 | 0.0147
CCN(CCO)CCCOc1ccc2c(Nc3cc(CC(=O)Nc4cccc(F)c4)[nH]n3)ncnc2c1 [AZD2811] + C[C@@H]1COCCN1C2=NC(=NC(=C2)C3(CC3)[S@](=N)(=O)C)C4=C5C=CNC5=NC=C4 [AZD6738] (first compound max 1 µM, 7x7, partner max 10 µM) | -0.044 | 0.0144 | -0.0514 | -0.0552 | -0.0399 | -0.0888 | -0.0977 | -0.0724 | -0.0554 | -0.0357 | -0.104 | 0.0064 | -0.0383 | -0.0192 | -0.047 | -0.0217 | -0.117 | -0.108 | -0.0291 | -0.0608
CN(C)CCCOc1ccc(-c2ccc3ncc4c(c3c2)n(C2CCOCC2)c(=O)n4C)cn1 [AZD0156] + CCN(CCO)CCCOc1ccc2c(Nc3cc(CC(=O)Nc4cccc(F)c4)[nH]n3)ncnc2c1 [AZD2811] (first compound max 1 µM, 7x7, partner max 1 µM) | -0.02 | 0.0136 | -0.0431 | 0.0012 | -0.0477 | -0.0955 | -0.0326 | -0.0392 | -0.0381 | -0.0208 | 0.0047 | -0.0205 | -0.0129 | 0.0425 | -0.0129 | -0.0587 | -0.0533 | -0.0441 | 0.0321 | 0.0053
COc1cccc2c1C(=O)c1c(O)c3c(c(O)c1C2=O)C[C@@](O)(C(=O)CO)C[C@@H]3O[C@H]1C[C@H](N)[C@H](O)[C@H](C)O1 [Doxorubicin] + Cc1cc2ncnn2cc1Nc1ncc2c(n1)n(C1CCOCC1)c(=O)n2C [AZD7648] (first compound max 1 µM, 7x7, partner max 10 µM) | 0.0388 | 0.0915 | -0.0448 | 0.0064 | 0.0082 | 0.0203 | 0.0309 | 0.0033 | -0.0177 | 0.0106 | 0.0105 | 0.0522 | 0.0594 | 0.061 | -0.0039 | 0.0212 | -0.0049 | 0.0476 | 0.0368 | 0.0891
NC1(C(=O)N[C@@H](CCO)c2ccc(Cl)cc2)CCN(c2ncnc3[nH]ccc23)CC1 [Capivasertib] + C[C@@H]1COCCN1C2=NC(=NC(=C2)C3(CC3)[S@](=N)(=O)C)C4=C5C=CNC5=NC=C4 [AZD6738] (first compound max 10 µM, 7x7, partner max 10 µM) | -0.0316 | -0.0719 | -0.0369 | -0.0397 | -0.0968 | -0.032 | -0.0652 | -0.0622 | -0.0702 | -0.0451 | -0.0575 | -0.0334 | -0.0374 | -0.0485 | -0.0349 | 0.0403 | -0.0456 | -0.0083 | -0.0503 | -0.0486
Cc1c2c(nn1C)CSCc1cc(n(C)n1)CSc1cc(c3ccccc3c1)OCCCc1c(C(=O)O)n(C)c3c-2c(Cl)ccc13 [AZD5991] + C1CN(CCC1(C(=O)N[C@@H](CCO)C2=CC=C(C=C2)Cl)N)C3=NC=NC4=C3C=CN4 [Capivasertib] (first compound max 1 µM, 7x7, partner max 3 µM) | 0.0106 | -0.0041 | -0.0218 | -0.026 | -0.0536 | 0.0283 | 0.0256 | -0.018 | -0.0315 | 0.0369 | -0.069 | -0.0402 | 0.0428 | 0 | 0.0626 | -0.0212 | -0.0065 | -0.0056 | -0.0218 | -0.0283
COc1cccc(OCCCN)c1-c1cc(Nc2cnc(C#N)cn2)n[nH]1 [Prexasertib] + CN(C)CCCOc1ccc(-c2ccc3ncc4c(c3c2)n(C2CCOCC2)c(=O)n4C)cn1 [AZD0156] (first compound max 1 µM, 7x7, partner max 1 µM) | -0.0095 | -0.0038 | -0.03 | -0.081 | 0.0034 | -0.033 | -0.057 | -0.0035 | -0.0307 | -0.0727 | 0.0116 | 0.0423 | 0.0611 | 0.0133 | -0.0049 | 0.0127 | -0.066 | -0.0244 | -0.0707 | -0.0167
